Measurements reported in patent publication US8658566B2, “Composition and method for controlling plant diseases” (Sumitomo Chemical Company, Limited, priority 2009, dated 2014).

System: Pythium damping-off pathogen (Pythium irregulare)
Test: Cucumber seed treatment test against Pythium damping-off (Test Example 1)
Format: in vivo
Conditions: cucumber (Sagamihanjiro) seed treatment, 20° C., 8 days
Protocol: A DMSO solution of the compound I and a DMSO solution of ethaboxam were respectively prepared. These solutions were mixed to prepare a DMSO solution containing predetermined concentrations of the compound I and ethaboxam. Ten (10) μL of the DMSO solution and 1 g of cucumber (Sagamihanjiro) seeds were mixed by shaking in a 15-ml conical tube and then allowed to stand overnight to prepare treated seeds. A plastic pot was filled with sandy soil and the treated seeds were sown on it and then covered with sandy soil which had been mixed with a bran culture of Pythium damping-off pathogen (Pythium irregulare). The sown seeds were watered and then cultured in a cultivation room at 20° C. for 8 days. The occurrence of Pythium damping-off diseases was checked and the incidence of disease was calculated by Equation 1.
For comparison, a DMSO solution containing a predetermined concentration of ethaboxam was prepared and subjected to the same test and then the incidence of disease was determined.
In order to calculate a control value, the same test was conducted in which the plants had been treated with none of the test compounds and the incidence of disease was determined.
The control value was calculated by the Equation 2 based on the incidence of disease thus determined. […]

Which results are given for CCNc1nc(CC)c(C(=O)NC(C#N)c2cccs2)s1 (centres unmarked) [Ethaboxam]?
Control value (ethaboxam 2 g/100 kg seeds alone (compound I 0)): 43; Control value (ethaboxam 10 g/100 kg seeds alone (compound I 0)): 64
